Consider 2 compounds from patent US20120064175A1, “HSP90 Inhibitors for Treating Non-Small Cell Lung Cancer in Wild-Type EGFR and/or KRAS Patients” (Synta Pharmaceuticals Corp., priority 2010, published 2012).

The subject of one test is Kasumi-1 cells. The settings on record: acute myeloid leukemia cell line that harbors a mutation in c-Kit; cited from earlier work.
The test system of test [1] is leukemia cells that express either wild type FLT3 or FLT3-ITD mutations. The settings on record: Yao, et al. 2003; cited from earlier work.
For another test, the system named is FLT3 with Hsp90. The conditions noted are these: cited from earlier work.
Test [2] relates to RERF-LC-AI human squamous non-small cell lung cancer cell line. The test is described as follows: Nude mouse xenograft model with RERF-LC-AI human tumor cells. The test is classed as in vivo. The settings on record: RERF-LC-AI^IVP tumors, i.p., 5 days per week, 15 doses; heading only, no data given. On the procedure: The human squamous non-small cell lung cancer cell line, RERF-LC-AI (RCB0444; S. Kyoizumi, et al., Cancer. Res. 45:3274-3281, 1985), was obtained from the Riken Cell Bank (Tsukuba, Ibaraki, Japan). The cell line was cultured in growth media prepared from 50% Dulbecco's Modified Eagle Medium (high glucose), 50% RPMI Media 1640, 10% fetal bovine serum (FBS), 1% 100×L-glutamine, 1% 100× penicillin-streptomycin, 1% 100× sodium pyruvate and 1% 100×MEM non-essential amino acids. FBS was obtained from American Type Culture Collection (Manassas, Va., USA) and all other reagents were obtained from Invitrogen Corp. (Carlsbad, Calif., USA). […]
The growth media was replaced every 2-3 days until the flask became 90% confluent, typically in 5-7 days. […] The supernatant was aspirated and the cell pellet was resuspended in 10 ml of growth media and the cell number determined using a hemocytometer. […]
Seven to eight week old, female Crl:CD-1-nuBR (nude) mice were obtained from Charles River Laboratories (Wilmington, Mass., USA) Animals were housed 4-5/cage in micro-isolators, with a 12 hr/12 hr light/dark cycle, acclimated for at least 1 week prior to use and fed normal laboratory chow ad libitum. […] Tumor volumes (V) were calculated by caliper measurement of the width (W), length (L) and thickness (T) of tumors using the following formula: V=0.5236×(L×W×T). […]
In general terms: In xenograft studies the graft and the host belong to different species.

Structures are written as SMILES.

Turning to `C=CCNC1=C2C[C@@H](C)C[C@H](OC)[C@H](O)[C@@H](C)/C=C(\C)[C@H](OC(N)=O)[C@@H](OC)/C=C\C=C(/C)C(=O)NC(=CC1=O)C2=O` [Compound 17AAG, 17-allylamino-17-demethoxygeldanamycin], in the test with Kasumi-1 cells, the Apoptosis result is recorded as “induce apoptosis”. In addition, the “Growth of leukemia cells” value in test [1] is on record as “inhibited”. In addition, the “Effect on the association of FLT3 with Hsp90” value in the test on FLT3 with Hsp90 is listed as “disrupt the association of FLT3 with Hsp90”.
With `CCc1cc(-c2nnc(S)n2-c2ccc(O)c3c2ccn3C(C)C)c(O)cc1O` [Compound 48, 3-(2,4-DIHYDROXY-5-ETHYL- PHENYL)-4-(1-ISOPROPYL-7- HYDROXY-INDOL-4-YL)-5- MERCAPTO-[1,2,4] TRIAZOLE], the “Anti-tumor activity against human tumor cells in a nude mouse xenograft model” value in test [2] is on record as “Displays Anti-tumor Activity”.
